Like-named read-outs stand apart in the source and are kept apart here.
Experiments:
[1] = system: 2-spotted spider mites; experiment: Contact activity on bean leaves against 2-spotted spider mites (Table X); format: in vivo, Tetranychus urticae; settings: for mortality at 0.015 ppm / mortality at 0.04 ppm / mortality at 0.06 ppm / mortality at 0.25 ppm: Tetranychus urticae
Protocol: (§1) A solution of Triton X-155 in acetone (1000 ppm) was used to dissolve the material under test and the resultant solution was diluted with water to obtain a mixture of 10% acetone and 100 ppm of Triton X-155 in water. Further dilution of this stock solution as required in a test was done by using Triton X-155 at 100 ppm in water so that a constant ratio of the surfactant was maintained at all levels. Where emulsifiable oil was used in the treatments, the solutions were prepared in such a way that the final solutions contained 0.06% v/v of the oil.
(§2) Leaves of Sieva bean plants grown from seeds planted 14-21 days earlier were used in all the tests. Twospotted spider mites (Tetranychus urticae) were cultured continuously on sieva bean plants growing in an insectary under continuous lighting at 75° F.
On day 0, eight leaves which had been infested with mites 24 hours earlier were dipped in the treatment solution. On Day 5, mortality was assessed on four of the leaves and on Day 12 on the remaining four leaves.

[2] = system: 2-spotted spider mites; experiment: Residual activity on bean leaves against 2-spotted spider mites (Table X); format: in vivo; settings: Tetranychus urticae
Protocol: as §1, §2
On Day 0, eight uninfested leaves were treated by immersion in the treatment solution. On Day 7, all the leaves were infested with a mixed population of mites. On Day 13, mortality was assessed on four of the leaves and on Day 19 on the remaining four leaves.

[3] = system: citrus rust mites; experiment: Field experiment, citrus rust mite on pink grapefruit in Florida (Table XI); format: in vivo, Phyllocoptruta oleivora
Protocol: Citrus (pink grapefruit) trees (which were 5-7 years old) infested with citrus rust mites (Phyllocoptrura oleivora) were sprayed using a hydraulic handgun at 250 psi. Each tree was sprayed until runoff.
Each treatment consisted of three replicates. Thirty-three leaves from each tree were evaluated for percent leaf area not infested by mites. These evaluations were done before the application of treatments and 7 and 14 days after the application of treatments.

[4] = 120 h, read-out: mortality, adults
[5] = 288 h, read-out: mortality, adults
[6] = 288 h, read-out: mortality, larvae
[7] = 288 h, read-out: mortality, nymphs
[8] = 144 h, read-out: mortality, adults
[9] = 144 h, read-out: mortality, nymphs

What does the source list for `CC1=C[C@H]2C(=O)O[C@H]3C[C@@H](C/C=C(\C)C[C@@H](C)/C=C/C=C4\CO[C@H]([C@@H]1O)[C@@]42O)O[C@@]1(CC[C@H](C)[C@@H](C(C)C)O1)C3` [Milbemycin B-41D, 13-deoxy-22,23-dihydro avermectin B1b aglycone]?
mortality at 0.015 ppm [1, 4]: 66%; mortality at 0.04 ppm [1, 4]: 79%; mortality at 0.06 ppm [1, 4]: 92%; mortality at 0.25 ppm [1, 4]: 100%; mortality at 0.015 ppm [1, 5]: 0%; mortality at 0.04 ppm [1, 5]: 0%; mortality at 0.06 ppm [1, 5]: 38%; mortality at 0.25 ppm [1, 5]: 43%; mortality at 0.015 ppm [1, 6]: 0%; mortality at 0.04 ppm [1, 6]: 0%; mortality at 0.06 ppm [1, 6]: 91%; mortality at 0.25 ppm [1, 6]: 100%; mortality at 0.015 ppm [1, 7]: 0%; mortality at 0.04 ppm [1, 7]: 0%; mortality at 0.06 ppm [1, 7]: 56%; mortality at 0.25 ppm [1, 7]: 67%; potency in short term contact studies ([1]; avermectin B1a/B1b versus milbemycin B-41D): comparable potency; mortality at 0.25 ppm [2, 8]: 0%; mortality at 1 ppm [2, 8]: 0%; mortality at 4 ppm [2, 8]: 6%; mortality at 16 ppm [2, 8]: 50%; mortality at 0.25 ppm [2, 9]: 0%; mortality at 1 ppm [2, 9]: 0%; mortality at 4 ppm [2, 9]: 0%; mortality at 16 ppm [2, 9]: 57%; mortality at 0.25 ppm [2, 5]: 0%; mortality at 1 ppm [2, 5]: 0%; mortality at 4 ppm [2, 5]: 15%; mortality at 16 ppm [2, 5]: 88%; mortality at 0.25 ppm [2, 6]: 0%; mortality at 1 ppm [2, 6]: 0%; mortality at 4 ppm [2, 6]: 53%; mortality at 16 ppm [2, 6]: 100%; mortality at 0.25 ppm [2, 7]: 0%; mortality at 1 ppm [2, 7]: 0%; mortality at 4 ppm [2, 7]: 2%; mortality at 16 ppm [2, 7]: 78%; Percent control ([3]; 0.04 oz ai/100 gal, 7 days after treatment): 14%; Percent control ([3]; 0.04 oz ai/100 gal, 14 days after treatment): 13%; Percent control ([3]; 0.2 oz ai/100 gal, 7 days after treatment): 16%; Percent control ([3]; 0.2 oz ai/100 gal, 14 days after treatment): 18%

— patent US4560677A, “Synergistic avermectin combination for treating plant pests” (Merck & Co., Inc., priority 1984, dated 1985)
